From PubChem BioAssay AID1996
≈ marks a conversion by molar mass, not a printed value.

conditions: buffer; pH 7.4; 200.0 µM

SMILES | solubility kinetic [µg/mL]
COc1ccc(CCn2c(C)c(C(C)=O)c(C(C)=O)c2C)cc1OC | > 51.5
O=C(C[n+]1ccc(/C=N/O)cc1)N1CCCCC1.[Cl-] | > 42.6
CC(C)(C)S(=O)(=O)/C(C#N)=C/c1sccc1C1OCCO1 | 35.4 (≈ 108 µM)
Cc1ccc(OCC(=O)O/N=C(\N)c2ccccn2)cc1C | 38.1 (≈ 127 µM)
COc1ccc(NC(=O)/C(=C/c2cccs2)NC(=O)c2ccco2)cc1 | 5 (≈ 13.6 µM)
CCN(CC)S(=O)(=O)c1cc(NC(=O)NCCCl)ccc1C | > 52.2
Cl.Nc1cc(Cl)ccc1N1CCCCCC1 | 12.4
CCSc1nc2sccc2c(=O)n1-c1ccccc1 | 27.3 (≈ 94.7 µM)
Cc1cccc(C(=O)Nc2ccc3c(c2)nc(C)n3C)c1 | 5.5 (≈ 19.7 µM)
O=C(O)C(=O)O.Oc1ccccc1CNCCCN1CCOCC1 | 41.5
CCOc1c(Nc2ccc(C(C)C)cc2)c(=O)c1=O | 25.3 (≈ 97.6 µM)
Cc1[nH]c(=O)c(C#N)c(C)c1CCC(=O)NCc1ccc(Cl)cc1 | > 51.6
C=CCOC(=O)Cn1cnc2c(sc3nc(C)cc(C)c32)c1=O | 3.2 (≈ 9.72 µM)
O=C(CCc1nnc(-c2ccccc2)o1)NC1CCCCC1 | > 44.9
O=C(CNS(=O)(=O)c1ccccc1)Nc1cccc([N+](=O)[O-])c1 | 49.1 (≈ 146 µM)
COc1ccc(-c2noc(-c3ccc(Br)o3)n2)cc1 | < 0.3
Cc1cccc(OCC(=O)NCc2ccc(F)cc2)c1 | 23.4 (≈ 85.6 µM)
Nc1ncc(S(=O)(=O)c2ccc(Cl)cc2)c(N)n1 | 31.4 (≈ 110 µM)
CC12CCC(=O)N1C(C(=O)NCCc1ccccc1)CS2 (centres undefined) | 37.6 (≈ 124 µM)
O=C(COC(=O)c1cc(F)cc(F)c1)NCCCc1ccccc1 | 3.7 (≈ 11.1 µM)
COc1ccc(/C=N/NC(=O)c2cccnc2)cc1 | > 38.3
CNCc1c(OCc2ccc(F)cc2)ccc2ccccc12.Cl | > 49.8
Cc1ccc(OCC(=O)NCCCNC(=O)c2ccccn2)cc1 | > 49.1
COc1ccc(NC(=S)NCc2cccnc2)cc1OC | > 45.5

SMILES | solubility kinetic [µg/mL]
CCC(=NCc1ccco1)c1c(O)n(-c2ccccc2C)c(=O)[nH]c1=O | > 53
Cc1nc(NC(=O)c2c(-c3ccccc3Cl)noc2C)sc1C | 13 (≈ 37.4 µM)
O=C(Nc1nccs1)c1ccc(CSc2ccccc2)o1 | 1.6 (≈ 5.06 µM)
O=C(CSc1nc2ccc([N+](=O)[O-])cc2s1)NCC1CCCO1 (centres undefined) | 50.6 (≈ 143 µM)
Cc1nc(-c2cccc(Br)c2)ccc1C(=O)O | 43.2 (≈ 148 µM)
O=C(NCCc1cccc(Cl)c1)c1cccs1 | > 39.9
Cc1cc2oc(=O)cc(CN3CCOCC3)c2cc1Cl | 4.3 (≈ 14.6 µM)
CSc1nc2sc3c(c2c(=O)n1C)CCC3 | 2.6 (≈ 10.3 µM)
COc1ccccc1NCC(=O)NC(=O)NC1CCCCC1 | 5.9 (≈ 19.3 µM)
CSc1ccccc1C(=O)C1CCCN(Cc2ccccn2)C1 (centres undefined) | 44.8 (≈ 137 µM)
Cc1ccc(OCCNC(=O)Cc2ccc(F)cc2)cc1 | 29.2 (≈ 102 µM)
S=C1NCN(Cc2ccco2)CN1c1cccc2ccccc12 | > 48.5
CN1CCc2c(sc(/N=C/c3c[nH]c4ccccc34)c2C(N)=O)C1 | 10.2 (≈ 30.1 µM)
Cc1cc(C(=O)NCc2ccc3c(c2)OCO3)c(C)o1 | > 41
Cc1cccc2c3c([nH]c12)C(=O)CC(C)(C)S3 | < 0.5
COc1ccc(OC)c(-c2cc(-c3cccnc3)nc(N)c2C#N)c1 | 1.7 (≈ 5.11 µM)
COc1ccc(-c2nc3ccccn3c2Cl)cc1 | 4.4 (≈ 17 µM)
COc1ccc(C(=O)NCCSCc2ccc(Cl)cc2)cc1OC | 3.9 (≈ 10.7 µM)
O=S(=O)(c1ccc(NCCCO)nc1)N1CCOCC1 | > 45.2
Cc1cc(N2CCCC2)nc2ccccc12 | 31.6 (≈ 149 µM)
O=C(Nc1cccc2c1CCCC2)c1ccccc1F | 2.5 (≈ 9.28 µM)
O=C1c2ccccc2C2(c3ccccc3)NCCCN12 (centres undefined) | > 39.6
CC(=O)Nc1cccc2c1C(=O)N(c1cccc(OC(C)=O)c1)C2=O | > 50.7
COc1ccc(NC(=O)C2CC(=O)n3c(nc4ccccc43)N2)cc1 (centres undefined) | 0.3 (≈ 0.892 µM)

SMILES | solubility kinetic [µg/mL]
Cc1ccc(C(=O)NCC(=O)N2CCCCCCC2)cc1C | > 45.4
COc1cccc(-c2nc(N)nc(SC)c2C#N)c1 | 0.6 (≈ 2.2 µM)
NC(=O)c1ccc(NC(=S)NCc2ccco2)cc1 | > 41.3
CCOC(=O)c1c(C)c2c(=O)[nH]cnc2n1-c1ccccc1 | 2.2 (≈ 7.4 µM)
CCC1(c2ccc(F)cc2)NC(=O)N(CC(=O)Nc2ccc3c(c2)OCCO3)C1=O (centres undefined) | 16 (≈ 38.7 µM)
CC(C)(C)c1ccc(-c2noc(CNC(=O)c3ccco3)n2)cc1 | 3.8 (≈ 11.7 µM)
Cc1cc(=O)[nH]c(-c2ccc(Cl)cc2)n1 | > 33.1
O=C(O)CC1(CC(=O)NCc2csc(-c3cccs3)n2)CCCCC1 | 44.9 (≈ 119 µM)
C/C=C/n1ccnc1CC(O)(c1ccccc1)c1ccc(C)cc1 (centres undefined) | 3.3 (≈ 10.4 µM)
COc1ccc(C)cc1NC(=O)COC(=O)c1ccc([N+](=O)[O-])o1 | 3.4 (≈ 10.2 µM)
Cc1ccc(C)c(NC(=O)C2CC(=O)N(C3CCCCC3)C2)c1 (centres undefined) | 41.5 (≈ 132 µM)
Cc1cccc(N2CCN(C(=O)/C=C/c3cccs3)CC2C)c1 (centres undefined) | 22.8 (≈ 69.8 µM)
Cc1ccc(NC(=O)Nc2ccon2)cc1Cl | 4 (≈ 15.9 µM)
O=C1NC2=C(C(=O)OC2)C(c2ccc(OC(F)(F)F)cc2)N1 (centres undefined) | > 47.1
Cc1nc(-c2ccccc2)sc1C(=O)NN | > 35
O=c1[nH]c(=O)n(CCc2ccccc2)c(O)c1C=NC1CC1 | 10.3 (≈ 34.4 µM)
COc1ccc(OC)c(S(=O)(=O)NCCCN2CCOCC2)c1.Cl | > 57.1
Cc1nc(N2CCOCC2)nc(Oc2ccccc2F)c1[N+](=O)[O-] | 1.5 (≈ 4.49 µM)
CCNC(=O)NC(=O)C(C)OC(=O)CCCc1nc2ccccc2s1 (centres undefined) | 49.4 (≈ 136 µM)
FC(F)Oc1ccc(NC(=S)NCc2nc3ccccc3[nH]2)cc1 | > 52.3
CCC(=O)Oc1ccc(C2NC(=O)c3ccccc3O2)cc1OC (centres undefined) | 28.5 (≈ 87.1 µM)
CC(NC(=O)COc1cccnc1[N+](=O)[O-])c1ccc(Cl)cc1Cl (centres undefined) | 44.1 (≈ 119 µM)
CN(Cc1ccc2ccccc2c1)C(=O)c1ccc(C(F)(F)F)cc1 | 4.6 (≈ 13.4 µM)
CN(C(=O)COC(=O)C12CC3CC(CC(Cl)(C3)C1)C2)c1ccccc1 | 21.4 (≈ 59.1 µM)

SMILES | solubility kinetic [µg/mL]
Cc1cc(C(=O)Nc2cccc([N+](=O)[O-])c2C)cs1 | 13.6 (≈ 49.2 µM)
OC(C#CCN1CCCC1)(c1ccccc1)c1cccnc1 (centres undefined) | > 43.9
COC(=O)CN=Cc1c(O)n(-c2ccc(Cl)cn2)c(=O)c2ccccc12 | > 55.8
CCC1(c2ccccc2)NC(=O)N(CC(=O)N(c2ccccc2)C2CCS(=O)(=O)C2)C1=O (centres undefined) | 38 (≈ 83.4 µM)
COc1cccc(NC(=O)C(Cc2ccccc2)n2cccc2)c1 (centres undefined) | 27.2 (≈ 84.9 µM)
COc1ccc(CN(C)C(=O)CCl)cc1 | > 34.2
S=C(NCCC1=CCCCC1)NCc1ccco1 | 38.8 (≈ 147 µM)
c1ccc(CN2CCN(Cc3ccc4ccccc4c3)CC2)cc1 | 23.4 (≈ 73.9 µM)
CCOC(=O)Cc1cc(=O)n2[nH]c(C)c(-c3ccccc3OC)c2n1 | > 51.2
CC(C)(C)C(=O)Nc1ccccc1-c1nc2ccccc2[nH]c1=O | > 48.2
O=C(Nc1ccc(Cl)c([N+](=O)[O-])c1)c1ccco1 | 10.6 (≈ 39.8 µM)
COc1cc2c3c(c1)C(C)CC(C)(C)N3C(=O)C2=O (centres undefined) | 36.2 (≈ 140 µM)
COc1ccc(CNc2ncnc3c2[nH]c2ccccc23)cc1 | 0.2 (≈ 0.657 µM)
O=[N+]([O-])c1ccccc1S(=O)(=O)N1CCCc2ccccc21 | 10.9 (≈ 34.2 µM)
CC1CC1C(=O)N(C)CC(=O)Nc1cccc(F)c1 (centres undefined) | > 39.6
CCC(c1ccc(C)cc1)N1C(=O)C2C3CCC(O3)C2C1=O (centres undefined) | 41.1 (≈ 137 µM)
COc1ccccc1NC(=S)NC(C)C(c1cccs1)N1CCOCC1 (centres undefined) | > 58.7
S=C(NCc1ccco1)NCc1ccccc1Cl | > 42.1
CC(NC(=O)c1ccccc1Cl)C(=O)OCc1cn2cc(Cl)ccc2n1 (centres undefined) | > 58.8
COC(=O)c1ccc(C2Nc3cccc4cccc(c34)N2)cc1 | 3.5 (≈ 11.5 µM)
CCOC(=O)C(=CNc1cscc1S(=O)(=O)C(C)C)C(=O)OCC | 38.9 (≈ 104 µM)
Cc1ccc(OCC(=O)NCCNC(=O)c2ccco2)cc1 | 32.9 (≈ 109 µM)
CC(=O)c1cccc(NC(=O)c2cc(-c3cccs3)on2)c1 | < 0.3
Cc1c(-n2cccc2C=O)cccc1[N+](=O)[O-] | > 34.5

SMILES | solubility kinetic [µg/mL]
O=c1[nH]c(=S)[nH]c2sc3c(c12)CCCCCC3 | 26.2 (≈ 98.4 µM)
O=c1[nH]c(O)c(C=Nc2ccccc2Sc2ccccc2)c(=O)[nH]1 | 1.3 (≈ 3.83 µM)
CC1(C)NC(=O)N(CC(=O)OCC(=O)c2ccc(Cl)s2)C1=O | > 51.7
O=S(=O)(NC1=NCCCCC1)c1cc(F)ccc1F | > 43.2
O=C(/C=C/c1ccccc1)Nc1cccc(S(=O)(=O)Nc2ccccc2F)c1 | 1 (≈ 2.52 µM)
O=C(O)C1CCN(C(=O)COc2ccc(Br)cc2)CC1 | > 51.3
CCCc1cnc(N2CCN(C(=O)c3ccc(F)cc3)CC2)nc1 | > 49.3
CCc1ccc(NC(=O)CN2CC(c3ccccc3)CC2=O)cc1 (centres undefined) | > 48.4
O=S(=O)(c1cccc2cccnc12)N1CCCc2ccccc21 | 1.3 (≈ 4.01 µM)
Cc1ccc(S(=O)(=O)NC(C)(C)CSc2ncccn2)cc1 | > 50.6
COc1ccccc1CNC(=O)CS(=O)(=O)c1ccc(C)cc1 | > 50
Nn1cnnc1SCC(=O)Nc1ccc2c(c1)OCO2 | > 44
CO[C@H]1O[C@H](C)[C@@H](O)C[C@H]1NC(=O)OCc1ccccc1 | > 44.3
O=C(COC(=O)c1ccc(F)cc1)Nc1ccc(Cl)cn1 | 0.8 (≈ 2.59 µM)
COc1cc(N/C(N)=N/c2nc(C)cc(C)n2)cc(OC)c1 | > 45.2
O=C(Cc1ccc([N+](=O)[O-])cc1)N1CCN(Cc2ccc3c(c2)OCO3)CC1 | 46.4 (≈ 121 µM)
Clc1ccc(CNc2ncccn2)cc1 | 24.4 (≈ 111 µM)
O=C(Cn1ccccc1=O)c1ccc(Cl)cc1 | 31.4 (≈ 127 µM)
COc1ccccc1NS(=O)(=O)c1cc(C(=O)N2CCCCCC2)ccc1C | 9.6 (≈ 23.8 µM)
Cn1cccc1C(=O)OCC(=O)Nc1ccc2c(c1)OCO2 | 17.4 (≈ 57.6 µM)
O=C1/C(=C/c2ccncc2)N=C2CCCCCN12 | 33.9 (≈ 140 µM)
Cc1ccc(CNC(=O)CSc2ccsc2[N+](=O)[O-])cc1 | 5.3 (≈ 16.4 µM)
O=C(N/N=C/c1ccccc1O)C(=O)N1CCCCCC1 | > 43.4
